Measured values as given in publication PMC2362906, “Effects of new 17α-hydroxylase/C17,20-lyase inhibitors on LNCaP prostate cancer cell growth in vitro and in vivo” (British Journal of Cancer, 1999).
“Also recorded” adds a separate entry of the source.

What was measured:
[1] = target: T1, human 17α-hydroxylase/C17,20-lyase (P450c17) expressed in LNCaP-CYP17 cells (Homo sapiens, UniProt P05093); test: [3H]-acetic acid releasing assay (AARA) with LNCaP-CYP17 cells; format: cell-based; conditions: LNCaP-CYP17 cells, 7 μM [21-3H]17-OHP5, 16 h; mean ± s.e.m., three experiments
T1 sequence (P05093 9-508 limits assumed): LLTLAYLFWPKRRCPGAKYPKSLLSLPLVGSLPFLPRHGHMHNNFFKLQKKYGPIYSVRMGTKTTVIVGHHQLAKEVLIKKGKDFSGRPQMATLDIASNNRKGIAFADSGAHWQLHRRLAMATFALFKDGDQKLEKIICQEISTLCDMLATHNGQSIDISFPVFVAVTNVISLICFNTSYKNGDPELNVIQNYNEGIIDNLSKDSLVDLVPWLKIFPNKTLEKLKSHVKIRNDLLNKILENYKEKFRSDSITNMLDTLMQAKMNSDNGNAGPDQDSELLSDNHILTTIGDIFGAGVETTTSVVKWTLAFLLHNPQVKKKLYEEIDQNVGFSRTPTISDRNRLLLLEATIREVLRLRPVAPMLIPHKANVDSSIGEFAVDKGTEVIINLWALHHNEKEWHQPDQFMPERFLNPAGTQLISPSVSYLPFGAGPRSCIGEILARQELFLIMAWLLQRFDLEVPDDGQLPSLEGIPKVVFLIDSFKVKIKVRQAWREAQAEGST

[2] = test system: LNCaP cells; test: Testosterone-stimulated wild-type LNCaP cell growth; format: cell-based, human
Description: (§1) Prostate cancer is the most common malignancy and the second leading cause of cancer-related deaths among men in the US and the UK (Shibata et al, 1998). […] Steroidal 17-hydroxylase/C17,20 -lyase (P450c17) (EC 1.14.99.0) was selected as the target enzyme for inhibition, as this is a key regulatory enzyme of androgen synthesis. P450c17 catal- yses two sequential reactions in the steroid biosynthetic pathway and converts pregnenolone and progesterone to the C-19 andro- gens, dehydroepiandrosterone and androstenedione respectively. This enzyme has an identical amino acid sequence in testicular and adrenal tissues (Chung et al, 1987). […] In order to evaluate the effectiveness of these inhibitors we developed a multi-step system, which utilized the LNCaP human prostate cancer cell line. LNCaP cells remain the only androgen receptor (AR)-positive prostate cancer cell line, that can be readily grown in tissue culture (Horoszewicz et al, 1983). These cells respond to androgens with increased cell proliferation and elevated expression of prostate specific antigen (PSA) (Berns et al, 1993). LNCaP cells at early passages are not only androgen-responsive, but also androgen- dependent (Pousette et al, 1997). This is similar to the situation in most tumours of prostatic cancer patients, which are initially highly responsive and dependent on androgens. […] Therefore, we employed LNCaP cells as a model for evaluating the effectiveness of our new inhibitors of androgen synthesis. In this study the compounds selected for evaluation were two groups of azolyl steroids. […] Here we report on the application of LNCaP-CYP17-transfected cells for determining the inhibitory potencies of the new compounds against the P450c17 enzyme. […] We designed and evaluated two groups of azolyl steroids: 5-non-competitive inhibitors (5NCIs), VN/63-1, VN/85-1, VN/87-1 and their corresponding 4 derivatives (4NCIs), VN/107-1, VN/108-1 and VN/109-1. The human P450c17 gene was transfected into LNCaP human prostate cancer cells, and the resultant LNCaP- CYP17 cells were utilized to evaluate the inhibitory potency of the new azolyl steroids. […] We further evaluated our inhibitors in male severe combined immuno- deficient mice bearing LNCaP tumour xenografts. […] We also utilized wild-type LNCaP prostatic carcinoma cells for evaluating the direct effects of new azolyl steroids on proliferation of these cells in vitro and in vivo. MATERIALS AND METHODS Materials The human prostate cancer cell line LNCaP was obtained from the American Type Culture Collection (Rockville, MD, USA). RPMI- 1640 medium, trypsin-EDTA (0.25%/0.02%), penicillin/strepto- mycin (P/S), geniticin (G418), and LipofectAMINE were from Gibco-BRL (Grand Island, NY, USA). Fetal bovine serum (FBS) was obtained from Summit Biotechnology Inc. (Fort Collins, CO, USA) and steroid-free FBS was prepared as described previously (Klus et al, 1996). Phenol red free IMEM and trypsin-versine were purchased from Biofluids Inc. (Rockville, MD, USA). Chloroform and acetonitrile were purchased from JT Baker, Inc (Phillipsburg, NJ, USA). Hydroxypropyl cellulose (HPC) was purchased from Sigma Chemical Co. (St Louis, MO, USA). The PSA enzyme- linked immunusorbent assay (ELISA) kit was from DSL Inc. (Webster, TX, USA). Matrigel was generously supplied by Dr Hynda Kleinman (NIH, Bethesda, MD, USA). Inhibitors of androgen synthesis: VN/63-1, VN/85-1, VN/87-1, VN/107-1, VN/108-1 and VN/109-1 were synthesized in our labo- ratory as previously described (Njar et al, 1998). […] Metribolone [17-methyl-3 H]-R1881 ([3 H]-R1881: specific activity 86 Ci mmol-1 ) was purchased from Dupont NEN (Boston, MA, USA).

[3] = test system: LNCaP cells; test: DHT-stimulated wild-type LNCaP cell growth; format: cell-based, human; conditions: 0.03 nM DHT, 9 days
Description: as §1

[4] = test system: LNCaP cells; test: LNCaP cell growth in steroid-free medium; format: cell-based, human; conditions: steroid-free medium
Description: Prostate cancer is the most common malignancy and the second leading cause of cancer-related deaths among men in the US and the UK (Shibata et al, 1998). […] Steroidal 17-hydroxylase/C17,20 -lyase (P450c17) (EC 1.14.99.0) was selected as the target enzyme for inhibition, as this is a key regulatory enzyme of androgen synthesis. P450c17 catal- yses two sequential reactions in the steroid biosynthetic pathway and converts pregnenolone and progesterone to the C-19 andro- gens, dehydroepiandrosterone and androstenedione respectively. This enzyme has an identical amino acid sequence in testicular and adrenal tissues (Chung et al, 1987). […] In order to evaluate the effectiveness of these inhibitors we developed a multi-step system, which utilized the LNCaP human prostate cancer cell line. LNCaP cells remain the only androgen receptor (AR)-positive prostate cancer cell line, that can be readily grown in tissue culture (Horoszewicz et al, 1983). These cells respond to androgens with increased cell proliferation and elevated expression of prostate specific antigen (PSA) (Berns et al, 1993). LNCaP cells at early passages are not only androgen-responsive, but also androgen- dependent (Pousette et al, 1997). This is similar to the situation in most tumours of prostatic cancer patients, which are initially highly responsive and dependent on androgens. […] Therefore, we employed LNCaP cells as a model for evaluating the effectiveness of our new inhibitors of androgen synthesis. In this study the compounds selected for evaluation were two groups of azolyl steroids. […] Here we report on the application of LNCaP-CYP17-transfected cells for determining the inhibitory potencies of the new compounds against the P450c17 enzyme. […] We designed and evaluated two groups of azolyl steroids: 5-non-competitive inhibitors (5NCIs), VN/63-1, VN/85-1, VN/87-1 and their corresponding 4 derivatives (4NCIs), VN/107-1, VN/108-1 and VN/109-1. The human P450c17 gene was transfected into LNCaP human prostate cancer cells, and the resultant LNCaP- CYP17 cells were utilized to evaluate the inhibitory potency of the new azolyl steroids. […] We further evaluated our inhibitors in male severe combined immuno- deficient mice bearing LNCaP tumour xenografts. […] We also utilized wild-type LNCaP prostatic carcinoma cells for evaluating the direct effects of new azolyl steroids on proliferation of these cells in vitro and in vivo. MATERIALS AND METHODS Materials The human prostate cancer cell line LNCaP was obtained from the American Type Culture Collection (Rockville, MD, USA). RPMI- 1640 medium, trypsin-EDTA (0.25%/0.02%), penicillin/strepto- mycin (P/S), geniticin (G418), and LipofectAMINE were from Gibco-BRL (Grand Island, NY, USA). […]

[5] = target: T2, LNCaP androgen receptor (Homo sapiens, UniProt P10275, T878A); test: Androgen receptor binding assay ([3H]R1881 displacement in LNCaP cells); conditions: from growth and binding results
T2 construct: endogenous in cells; host or cells: LNCaP (wild-type, untransfected)
T2 sequence (P10275 whole entry T878A): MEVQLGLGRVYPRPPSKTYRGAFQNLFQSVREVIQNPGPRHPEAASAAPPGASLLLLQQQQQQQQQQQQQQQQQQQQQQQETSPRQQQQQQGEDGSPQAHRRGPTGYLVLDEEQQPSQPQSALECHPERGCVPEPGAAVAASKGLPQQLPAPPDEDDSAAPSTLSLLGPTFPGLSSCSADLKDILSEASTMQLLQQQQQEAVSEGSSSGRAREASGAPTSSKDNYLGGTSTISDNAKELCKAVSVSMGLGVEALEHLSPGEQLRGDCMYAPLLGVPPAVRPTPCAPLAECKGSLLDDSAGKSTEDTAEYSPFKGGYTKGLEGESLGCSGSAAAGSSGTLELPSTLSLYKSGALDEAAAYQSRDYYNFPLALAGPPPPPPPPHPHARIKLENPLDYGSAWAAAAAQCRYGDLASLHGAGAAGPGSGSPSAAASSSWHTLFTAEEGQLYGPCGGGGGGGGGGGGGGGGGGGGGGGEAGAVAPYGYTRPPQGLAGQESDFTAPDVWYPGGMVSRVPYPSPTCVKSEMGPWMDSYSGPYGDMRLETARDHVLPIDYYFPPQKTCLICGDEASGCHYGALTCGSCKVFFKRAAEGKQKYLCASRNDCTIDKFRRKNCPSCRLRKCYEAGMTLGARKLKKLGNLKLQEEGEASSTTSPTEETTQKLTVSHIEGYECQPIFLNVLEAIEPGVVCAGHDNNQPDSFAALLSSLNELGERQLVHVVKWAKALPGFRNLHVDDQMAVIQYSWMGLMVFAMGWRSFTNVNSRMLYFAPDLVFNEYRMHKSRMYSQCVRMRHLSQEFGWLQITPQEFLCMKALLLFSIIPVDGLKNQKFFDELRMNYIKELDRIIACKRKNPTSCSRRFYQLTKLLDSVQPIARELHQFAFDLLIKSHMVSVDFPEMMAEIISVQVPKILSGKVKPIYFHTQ
Description: Prostate cancer is the most common malignancy and the second leading cause of cancer-related deaths among men in the US and the UK (Shibata et al, 1998). […] Steroidal 17-hydroxylase/C17,20 -lyase (P450c17) (EC 1.14.99.0) was selected as the target enzyme for inhibition, as this is a key regulatory enzyme of androgen synthesis. P450c17 catal- yses two sequential reactions in the steroid biosynthetic pathway and converts pregnenolone and progesterone to the C-19 andro- gens, dehydroepiandrosterone and androstenedione respectively. This enzyme has an identical amino acid sequence in testicular and adrenal tissues (Chung et al, 1987). […] In order to evaluate the effectiveness of these inhibitors we developed a multi-step system, which utilized the LNCaP human prostate cancer cell line. LNCaP cells remain the only androgen receptor (AR)-positive prostate cancer cell line, that can be readily grown in tissue culture (Horoszewicz et al, 1983). […] We designed and evaluated two groups of azolyl steroids: 5-non-competitive inhibitors (5NCIs), VN/63-1, VN/85-1, VN/87-1 and their corresponding 4 derivatives (4NCIs), VN/107-1, VN/108-1 and VN/109-1. […] We further evaluated our inhibitors in male severe combined immuno- deficient mice bearing LNCaP tumour xenografts. […]

[6] = test system: LNCaP tumour xenografts; test: LNCaP tumour xenograft growth in male SCID mice; format: in vivo; conditions: first experiment
Description: as §1

[7] = test system: serum PSA; test: Serum PSA (ELISA) in LNCaP tumour-bearing SCID mice; format: in vivo, male SCID mice; conditions: first experiment, 50 mg kg-1 day-1, 28 days
Description: Prostate cancer is the most common malignancy and the second leading cause of cancer-related deaths among men in the US and the UK (Shibata et al, 1998). […] Steroidal 17-hydroxylase/C17,20 -lyase (P450c17) (EC 1.14.99.0) was selected as the target enzyme for inhibition, as this is a key regulatory enzyme of androgen synthesis. P450c17 catal- yses two sequential reactions in the steroid biosynthetic pathway and converts pregnenolone and progesterone to the C-19 andro- gens, dehydroepiandrosterone and androstenedione respectively. This enzyme has an identical amino acid sequence in testicular and adrenal tissues (Chung et al, 1987). […] In order to evaluate the effectiveness of these inhibitors we developed a multi-step system, which utilized the LNCaP human prostate cancer cell line. LNCaP cells remain the only androgen receptor (AR)-positive prostate cancer cell line, that can be readily grown in tissue culture (Horoszewicz et al, 1983). These cells respond to androgens with increased cell proliferation and elevated expression of prostate specific antigen (PSA) (Berns et al, 1993). LNCaP cells at early passages are not only androgen-responsive, but also androgen- dependent (Pousette et al, 1997). This is similar to the situation in most tumours of prostatic cancer patients, which are initially highly responsive and dependent on androgens. […] Therefore, we employed LNCaP cells as a model for evaluating the effectiveness of our new inhibitors of androgen synthesis. In this study the compounds selected for evaluation were two groups of azolyl steroids. […] Here we report on the application of LNCaP-CYP17-transfected cells for determining the inhibitory potencies of the new compounds against the P450c17 enzyme. […] We designed and evaluated two groups of azolyl steroids: 5-non-competitive inhibitors (5NCIs), VN/63-1, VN/85-1, VN/87-1 and their corresponding 4 derivatives (4NCIs), VN/107-1, VN/108-1 and VN/109-1. The human P450c17 gene was transfected into LNCaP human prostate cancer cells, and the resultant LNCaP- CYP17 cells were utilized to evaluate the inhibitory potency of the new azolyl steroids. […] We further evaluated our inhibitors in male severe combined immuno- deficient mice bearing LNCaP tumour xenografts. […] We also utilized wild-type LNCaP prostatic carcinoma cells for evaluating the direct effects of new azolyl steroids on proliferation of these cells in vitro and in vivo. MATERIALS AND METHODS Materials The human prostate cancer cell line LNCaP was obtained from the American Type Culture Collection (Rockville, MD, USA). RPMI- 1640 medium, trypsin-EDTA (0.25%/0.02%), penicillin/strepto- mycin (P/S), geniticin (G418), and LipofectAMINE were from Gibco-BRL (Grand Island, NY, USA). Fetal bovine serum (FBS) was obtained from Summit Biotechnology Inc. (Fort Collins, CO, USA) and steroid-free FBS was prepared as described previously (Klus et al, 1996). Phenol red free IMEM and trypsin-versine were purchased from Biofluids Inc. (Rockville, MD, USA). Chloroform and acetonitrile were purchased from JT Baker, Inc (Phillipsburg, NJ, USA). Hydroxypropyl cellulose (HPC) was purchased from Sigma Chemical Co. (St Louis, MO, USA). The PSA enzyme- linked immunusorbent assay (ELISA) kit was from DSL Inc. (Webster, TX, USA). Matrigel was generously supplied by Dr Hynda Kleinman (NIH, Bethesda, MD, USA). […]

[8] = test system: serum testosterone; test: Serum testosterone (RIA) in SCID mice; format: in vivo, male SCID mice; conditions: Table 2, first experiment, 28 days of treatment, 50 mg kg-1 day-1; control 1.043
Description: as §1

[9] = test system: serum DHT; test: Serum DHT (RIA) in SCID mice; format: in vivo, male SCID mice; conditions: Table 2, first experiment, 28 days of treatment, 50 mg kg-1 day-1; control 243.8
Description: as §1

[10] = target: human prostatic 5-reductase; design: method as in Njar et al, 1998; conditions: human prostatic microsomes; reported previously; ref Njar et al, 1998; cited from earlier work

## C[C@]12CCC(=O)C=C1CCC1C2CC[C@]2(C)C(n3ccnc3)=CCC12 (stereo partly drawn) [VN/108-1]
[1]
  IC50: 2.96 ± 0.78 nM
[2]; 0.1 nM testosterone, 9 days
  Concentration that completely inhibited the growth stimulatory effect of testosterone: 5 µM
[2]; wild-type LNCaP cells, testosterone or DHT
  Effect on growth-stimulating effects of androgens: blocked the growth-stimulating effects of androgens
[3]
  Concentration that completely blocked DHT stimulation: 5.0 µM
[4]
  Effect on LNCaP cell growth in absence of androgens: stimulated cell growth in absence of androgens
[5]
  Character at LNCaP AR: partial agonist of LNCaP AR
[6]; 50 mg kg-1 day-1, 4 weeks
  Inhibition of LNCaP tumour growth (tumour volume): 9%
[6]; 50 mg kg-1 day-1, 28 days
  Effect on tumour growth or tumour weights: no significant effects on tumour growth or tumour weights
[7]
  Serum PSA levels versus control: lowest levels of serum PSA; also recorded: significantly lower
[8]
  Serum Testosterone: 0.081 ng/mL
[9]
  Serum DHT: 122.1 pg/mL
[10]
  IC50: 142 nM
